Laboratory results: patent publication US20260297070A1, “CYCLIC [COMPOUND LEFT OUT] WRN INHIBITORS” (Nimbus Wadjet, Inc., priority 2023, published 2026)

target: T1, human Werner helicase (WRN-BV08, Uniprot Q14191, amino acids 517-1235 with L1074F point mutation) (Homo sapiens, UniProt Q14191, L1074F); assay: WRN (BV08) ADP-Glo Assay; assay type: biochemical; conditions: 0.15 nM WRN, 5 μM ATP, 0.1 nM DNA duplex, 15 min preincubation, 60 min at 25° C., pH 7.5, 1% DMSO; read-out: ADP-Glo_hWRN_IC50
T1 construct: Uniprot Q14191, amino acids 517-1235 with L1074F point mutation; TEV-cleavable 8×His (C, cleaved yes); made in house; host or cells: Sf9 insect cells (baculovirus)
T1 sequence (Q14191 with tags, fused parts or gaps L1074F limits assumed): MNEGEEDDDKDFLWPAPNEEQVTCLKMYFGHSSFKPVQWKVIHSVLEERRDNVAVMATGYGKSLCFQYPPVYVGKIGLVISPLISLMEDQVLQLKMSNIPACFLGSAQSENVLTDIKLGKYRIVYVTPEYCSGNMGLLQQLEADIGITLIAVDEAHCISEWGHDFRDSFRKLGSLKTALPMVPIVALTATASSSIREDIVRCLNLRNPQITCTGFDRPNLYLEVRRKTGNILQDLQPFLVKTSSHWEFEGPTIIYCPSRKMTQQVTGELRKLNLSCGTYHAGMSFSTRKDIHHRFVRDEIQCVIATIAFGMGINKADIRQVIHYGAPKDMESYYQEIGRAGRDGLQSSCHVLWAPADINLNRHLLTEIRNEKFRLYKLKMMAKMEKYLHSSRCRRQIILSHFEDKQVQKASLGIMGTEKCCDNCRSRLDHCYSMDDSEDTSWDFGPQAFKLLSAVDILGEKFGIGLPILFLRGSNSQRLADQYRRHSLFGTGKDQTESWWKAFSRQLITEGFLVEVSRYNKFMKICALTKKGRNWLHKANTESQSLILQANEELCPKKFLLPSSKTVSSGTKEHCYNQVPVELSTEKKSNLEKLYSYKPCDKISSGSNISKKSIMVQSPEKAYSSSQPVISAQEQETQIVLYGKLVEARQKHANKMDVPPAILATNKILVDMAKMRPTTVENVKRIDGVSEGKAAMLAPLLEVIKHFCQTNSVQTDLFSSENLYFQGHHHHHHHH
In short: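 ADP-Glo luminescence read-out of ATP hydrolysis. Conditions: 0.15 nM WRN, 5 μM ATP, 0.1 nM DNA duplex, 1% DMSO, 60 min at 25 °C after 15 min compound preincubation. Max/min controls were DMSO and 20 μM NSC-617145; IC50 from four-parameter fit.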

`CC(C)(O)c1cc(CN(C(=O)C2Cc3cc(-c4ccc(F)cc4)ccc32)C2C=CS(=O)(=O)C2)ccn1` (stereo not drawn) [I-223, N-(1,1-dioxo-2,3-dihydro-1lambda6-thiophen-3-yl)-3-(4-fluorophenyl)-N-{[2-(2-hydroxypropan-2-yl)pyridin-4-yl]methyl}bicyclo[4.2.0]octa-1,3,5-triene-7-carboxamide] and `O=C(C1Cc2cc(-c3ccc(F)cc3)ccc21)N(Cc1ccncc1)C1C=CS(=O)(=O)C1` (stereo not drawn) [I-249, N-(1,1-dioxo-2,3-dihydro-1lambda6-thiophen-3-yl)-3-(4-fluorophenyl)-N-[(pyridin-4-yl)methyl]bicyclo[4.2.0]octa-1(6),2,4-triene-7-carboxamide] fall in the same range of IC50: 5 to 10 µM for the first, 5 to 10 µM for the second.

`Cc1cccn1-c1ccc(CC(=O)N(Cc2cccnn2)C2C=CS(=O)(=O)C2)c(F)c1` (stereo not drawn) [I-224, N-(1,1-dioxo-2,3-dihydro-1lambda6-thiophen-3-yl)-2-[2-fluoro-4-(2-methyl-1H-pyrrol-1-yl)phenyl]-N-[(pyridazin-3-yl)methyl]acetamide] and `COc1cc(CN(C(=O)Cc2ccc(-n3cccc3C)cn2)C2C=CS(=O)(=O)C2)ccn1` (stereo not drawn) [I-250, N-(1,1-dioxo-2,3-dihydro-1lambda6-thiophen-3-yl)-N-[(2-methoxypyridin-4-yl)methyl]-2-[5-(2-methyl-1H-pyrrol-1-yl)pyridin-2-yl]acetamide] fall in the same range of IC50: 5 to 10 µM for the first, 5 to 10 µM for the second.

`O=C(Cc1ccc(-n2cccc2)cc1)N(Cc1ccc2c(c1)OCO2)C1C=CS(=O)(=O)C1` (stereo not drawn) [I-225, N-[(2H-1,3-benzodioxol-5-yl)methyl]-N-(1,1-dioxo-2,3-dihydro-1lambda6-thiophen-3-yl)-2-[4-(1H-pyrrol-1-yl)phenyl]acetamide] and `COc1cccc(CN(C(=O)Cc2ccc(-n3cccc3)cc2)C2C=CS(=O)(=O)C2)c1` (stereo not drawn) [I-234, N-(1,1-dioxo-2,3-dihydro-1lambda6-thiophen-3-yl)-N-[(3-methoxyphenyl)methyl]-2-[4-(1H-pyrrol-1-yl)phenyl]acetamide] fall in the same range of IC50: 5 to 10 µM for the first, 5 to 10 µM for the second.

`Cn1ncc2cc(CN(C(=O)Cc3ccc(-n4cccc4)cc3)C3C=CS(=O)(=O)C3)ccc21` (stereo not drawn) [I-226, N-(1,1-dioxo-2,3-dihydro-1lambda6-thiophen-3-yl)-N-[(1-methyl-1H-indazol-5-yl)methyl]-2-[4-(1H-pyrrol-1-yl)phenyl]acetamide] and `O=C(Cc1ccc(-n2cccc2)cc1)N(Cc1ccncc1)C1C=CS(=O)(=O)C1` (stereo not drawn) [I-239, N-(1,1-dioxo-2,3-dihydro-1lambda6-thiophen-3-yl)-N-[(pyridin-4-yl)methyl]-2-[4-(1H-pyrrol-1-yl)phenyl]acetamide] fall in the same range of IC50: 5 to 10 µM for the first, 5 to 10 µM for the second.

`Cc1cc(-c2ccc(F)cc2)ccc1CC(=O)N(Cc1ccncc1)C1C=CS(=O)(=O)C1` (stereo not drawn) [I-227, N-(1,1-dioxo-2,3-dihydro-1lambda6-thiophen-3-yl)-2-{4′-fluoro-3-methyl-[1,1′-biphenyl]-4-yl}-N-[(pyridin-4-yl)methyl]acetamide] and `O=C(Cc1ccc(-c2ccsc2)cc1)N(Cc1ccncc1)C1C=CS(=O)(=O)C1` (stereo not drawn) [I-248, N-(1,1-dioxo-2,3-dihydro-1lambda6-thiophen-3-yl)-N-[(pyridin-4-yl)methyl]-2-[4-(thiophen-3-yl)phenyl]acetamide] fall in the same range of IC50: 5 to 10 µM for the first, 5 to 10 µM for the second.

`O=C(Cc1ccc(-n2cccc2)cc1)N(Cc1ccncc1Cl)C1C=CS(=O)(=O)C1` (stereo not drawn) [I-228, N-[(3-chloropyridin-4-yl)methyl]-N-(1,1-dioxo-2,3-dihydro-1lambda6-thiophen-3-yl)-2-[4-(1H-pyrrol-1-yl)phenyl]acetamide] and `O=C(Cc1ccc(-n2cccc2)cc1)N(Cc1ccc(F)cc1F)C1C=CS(=O)(=O)C1` (stereo not drawn) [I-242, N-[(2,4-difluorophenyl)methyl]-N-(1,1-dioxo-2,3-dihydro-1lambda6-thiophen-3-yl)-2-[4-(1H-pyrrol-1-yl)phenyl]acetamide] fall in the same range of IC50: 5 to 10 µM for the first, 5 to 10 µM for the second.

First: C#CCCCC(=O)N1CCN(C(=O)c2ccc(CN(C(=O)Cc3ccc(-n4cccc4)cc3F)C3C=CS(=O)(=O)C3)cc2)CC1 (stereo not drawn) [I-229, N-(1,1-dioxo-2,3-dihydro-1lambda6-thiophen-3-yl)-2-[2-fluoro-4-(1H-pyrrol-1-yl)phenyl]-N-({4-[4-(hex-5-ynoyl)piperazine-1-carbonyl]phenyl}methyl)acetamide]
Second: C#CCCCC(=O)N1CCN(c2ccc(CN(C(=O)Cc3ccc(-n4cccc4)cc3)C3C=CS(=O)(=O)C3)cc2)CC1 (stereo not drawn) [I-238, N-(1,1-dioxo-2,3-dihydro-1lambda6-thiophen-3-yl)-N-({4-[4-(hex-5-ynoyl)piperazin-1-yl]phenyl}methyl)-2-[4-(1H-pyrrol-1-yl)phenyl]acetamide]
The IC50 of the first is higher: 5 to 10 µM for the first, 0.5 to 5 µM for the second.

Compared with `CC(C)(O)c1cc(CN(C(=O)Cc2ccc(S(F)(F)(F)(F)F)cc2)[C@H]2C=CS(=O)(=O)C2)ccn1` [I-230, N-[(3S)-1,1-dioxo-2,3-dihydro-1lambda6-thiophen-3-yl]-N-{[2-(2-hydroxypropan-2-yl)pyridin-4-yl]methyl}-2-[4-(pentafluoro-lambda6-sulfanyl)phenyl]acetamide], `O=C(Cc1ccc(C(F)(F)F)cc1)N(Cc1ccncc1)C1C=CS(=O)(=O)C1` (stereo not drawn) [I-254, N-(1,1-dioxo-2,3-dihydro-1lambda6-thiophen-3-yl)-N-[(pyridin-4-yl)methyl]-2-[4-(trifluoromethyl)phenyl]acetamide] is higher in IC50: 0.5 to 5 µM for the first, 5 to 10 µM for the second. The first is the more potent here.

`O=C1Nc2cc(C(F)(F)F)ccc2SC1CC(=O)N(Cc1ccncc1)C1C=CS(=O)(=O)C1` (stereo not drawn) [I-231, N-(1,1-dioxo-2,3-dihydro-1lambda6-thiophen-3-yl)-2-[3-oxo-6-(trifluoromethyl)-3,4-dihydro-2H-1,4-benzothiazin-2-yl]-N-[(pyridin-4-yl)methyl]acetamide] and `O=C(Cc1ccc(C(F)(F)F)c(F)c1)N(Cc1ccncc1)C1C=CS(=O)(=O)C1` (stereo not drawn) [I-236, N-(1,1-dioxo-2,3-dihydro-1lambda6-thiophen-3-yl)-2-[3-fluoro-4-(trifluoromethyl)phenyl]-N-[(pyridin-4-yl)methyl]acetamide] fall in the same range of IC50: 5 to 10 µM for the first, 5 to 10 µM for the second.

`O=C(Cc1ccc(-n2cccc2)cc1)N(Cc1cccc(-n2cccn2)c1)C1C=CS(=O)(=O)C1` (stereo not drawn) [I-232, N-(1,1-dioxo-2,3-dihydro-1lambda6-thiophen-3-yl)-N-{[3-(1H-pyrazol-1-yl)phenyl]methyl}-2-[4-(1H-pyrrol-1-yl)phenyl]acetamide] and `O=C(Cc1ccc(-n2cccc2)cc1)N(Cc1cccc2cccnc12)C1C=CS(=O)(=O)C1` (stereo not drawn) [I-243, N-(1,1-dioxo-2,3-dihydro-1lambda6-thiophen-3-yl)-2-[4-(1H-pyrrol-1-yl)phenyl]-N-[(quinolin-8-yl)methyl]acetamide] fall in the same range of IC50: 5 to 10 µM for the first, 5 to 10 µM for the second.

`O=C(C1Cc2cc(-n3cccc3)ccc21)N(Cc1ccncc1)C1C=CS(=O)(=O)C1` (stereo not drawn) [I-233, N-(1,1-dioxido-2,3-dihydrothiophen-3-yl)-N-(pyridin-4-ylmethyl)-3-(1H-pyrrol-1-yl)bicyclo[4.2.0]octa-1(6),2,4-triene-7-carboxamide] and `O=C(C1Cc2cc(-n3cccc3)ccc2O1)N(Cc1ccncc1)C1C=CS(=O)(=O)C1` (stereo not drawn) [I-244, N-(1,1-dioxo-2,3-dihydro-1lambda6-thiophen-3-yl)-N-[(pyridin-4-yl)methyl]-5-(1H-pyrrol-1-yl)-2,3-dihydro-1-benzofuran-2-carboxamide] fall in the same range of IC50: 5 to 10 µM for the first, 5 to 10 µM for the second.

`COc1cc(CN(C(=O)CCc2c[nH]c3cc(Cl)ccc23)C2C=CS(=O)(=O)C2)ccn1` (stereo not drawn) [I-240, 3-(6-chloro-1H-indol-3-yl)-N-(1,1-dioxo-2,3-dihydro-1lambda6-thiophen-3-yl)-N-[(2-methoxypyridin-4-yl)methyl]propanamide] and `COc1cc(CN(C(=O)Cc2c(F)cc(-n3cccc3C)cc2F)C2C=CS(=O)(=O)C2)ccn1` (stereo not drawn) [I-241, 2-[2,6-difluoro-4-(2-methyl-1H-pyrrol-1-yl)phenyl]-N-(1,1-dioxo-2,3-dihydro-1lambda6-thiophen-3-yl)-N-[(2-methoxypyridin-4-yl)methyl]acetamide] fall in the same range of IC50: 5 to 10 µM for the first, 5 to 10 µM for the second.

`CC1CC1c1ccc(CC(=O)N(Cc2ccncc2)C2C=CS(=O)(=O)C2)cc1` (stereo not drawn) [I-245, N-(1,1-dioxo-2,3-dihydro-1lambda6-thiophen-3-yl)-2-[4-(2-methylcyclopropyl)phenyl]-N-[(pyridin-4-yl)methyl]acetamide] and `O=C(Cc1ccc(OC(F)(F)F)cc1)N(Cc1ccncc1)C1C=CS(=O)(=O)C1` (stereo not drawn) [I-252, N-(1,1-dioxo-2,3-dihydro-1lambda6-thiophen-3-yl)-N-[(pyridin-4-yl)methyl]-2-[4-(trifluoromethoxy)phenyl]acetamide] fall in the same range of IC50: 5 to 10 µM for the first, 5 to 10 µM for the second.

`COc1cc(CN(C(=O)C(OC)c2ccc(C(F)(F)F)cc2)C2C=CS(=O)(=O)C2)ccn1` (stereo not drawn) [I-246, N-(1,1-dioxo-2,3-dihydro-1lambda6-thiophen-3-yl)-2-methoxy-N-[(2-methoxypyridin-4-yl)methyl]-2-[4-(trifluoromethyl)phenyl]acetamide] and `COc1cc(CN(C(=O)Cc2ccc(-c3ccc(F)cc3)cc2)C2C=CS(=O)(=O)C2)on1` (stereo not drawn) [I-247, N-(1,1-dioxo-2,3-dihydro-1lambda6-thiophen-3-yl)-2-{4′-fluoro-[1,1′-biphenyl]-4-yl}-N-[(3-methoxy-1,2-oxazol-5-yl)methyl]acetamide] fall in the same range of IC50: 5 to 10 µM for the first, 5 to 10 µM for the second.

`O=C(Cc1ccc(-n2cccc2)cc1)N(Cc1ccc2nccnc2c1)C1C=CS(=O)(=O)C1` (stereo not drawn) [I-251, N-(1,1-dioxo-2,3-dihydro-1lambda6-thiophen-3-yl)-2-[4-(1H-pyrrol-1-yl)phenyl]-N-[(quinoxalin-6-yl)methyl]acetamide] and `CNC(=O)c1ccc(CN(C(=O)Cc2ccc(-n3cccc3)cc2)C2C=CS(=O)(=O)C2)cc1` (stereo not drawn) [I-255, 4-{[N-(1,1-dioxo-2,3-dihydro-1lambda6-thiophen-3-yl)-2-[4-(1H-pyrrol-1-yl)phenyl]acetamido]methyl}-N-methylbenzamide] fall in the same range of IC50: 5 to 10 µM for the first, 5 to 10 µM for the second.
